Several values for one entry are separate records, joined by “and”; a condition that tells them apart may be missing. Equal values may be shown once. Blank lines part the entries; values can stand above or below the compound they belong to.
Legend:
BHK-21 normal cells = experiment: MTT cell viability assay, BHK-21 normal cells; format: cell-based; conditions: 100 μM, 24–48 h incubation; for % cell viability ± SD (BHK-21 cells): vs untreated control
HEK-293 T normal cells = experiment: MTT cell viability assay, HEK-293 T normal cells; format: cell-based; conditions: 100 μM, 24–48 h incubation, MTT; for % cell viability ± SD (HEK-293 T cells): vs untreated control
[1] = MTT cell viability assay, HEK-293 T normal cells; format: cell-based; conditions: human, HEK-293 T normal cells; for viability at 100 µM: % cell viability ± SD (HEK-293 T cells), 24–48 h incubation, MTT, vs untreated control
hCA XII = hCA XII (Homo sapiens, UniProt O43570); experiment: Carbonic anhydrase inhibition assay; format: biochemical
Sequence of hCA XII (O43570 25-354): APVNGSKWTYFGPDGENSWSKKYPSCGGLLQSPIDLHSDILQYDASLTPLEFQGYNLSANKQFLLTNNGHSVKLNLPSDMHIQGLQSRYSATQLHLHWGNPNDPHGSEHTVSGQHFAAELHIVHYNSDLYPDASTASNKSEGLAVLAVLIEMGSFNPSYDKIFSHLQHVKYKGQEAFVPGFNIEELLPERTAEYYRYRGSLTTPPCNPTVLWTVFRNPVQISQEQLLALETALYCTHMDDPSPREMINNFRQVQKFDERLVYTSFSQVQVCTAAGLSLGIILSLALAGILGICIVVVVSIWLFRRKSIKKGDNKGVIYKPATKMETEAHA

hCA IX = hCA IX (Homo sapiens, UniProt Q16790); experiment: biochemical
hCA II = hCA II (Homo sapiens, UniProt P00918); experiment: Carbonic anhydrase inhibition assay; format: biochemical; conditions: for IC50: IC50 ± SEM hCA II, mean of three independent experiments; for inhibition of hCA-II in words: text grading of Table 4 results

Compound: 3-(3-(3,4-Dimethoxybenzoyl) thioureido) Benzoic Acid [Compound 21]
% cytotoxicity ± SD (BHK-21 cells) (BHK-21 normal cells): 51.5 ± 0.06% | % cell viability ± SD (BHK-21 cells) (BHK-21 normal cells): 48 ± 0.1% | % cytotoxicity ± SD (HEK-293 T cells) (HEK-293 T normal cells): 13 ± 0.05% | % cell viability ± SD (HEK-293 T cells) (HEK-293 T normal cells): 86 ± 0.6%

Compound: Cc1ccc(C(=O)Nc2cccc(C(=O)O)c2)c(C)c1 [Compound 13, 3-(2,4-Dimethylbenzamido) Benzoic Acid]
cytotoxicity at 100 µM [1]: 14 ± 0.09% | viability at 100 µM [1]: 86 ± 0.6% | IC50 (hCA IX): 10400 ± 1450 nM

Compound: Cc1cc(C)cc(C(=O)Nc2cc([N+](=O)[O-])ccc2Cl)c1 [Compound 14, N-(2-Chloro-5-nitrophenyl)-3,5-dimethylbenzamide]
cytotoxicity at 100 µM [1]: 15 ± 0.4% | viability at 100 µM [1]: 85 ± 0.1% | IC50 (hCA XII): 950 ± 80 nM | IC50 (hCA II): 6490 ± 630 nM | inhibition of hCA-II in words (hCA II): moderate inhibition

Compound: COc1ccc(C(=O)NC(=S)Nc2cc(Cl)c(S(N)(=O)=O)cc2S(N)(=O)=O)cc1OC [Compound 17, N-((5-Chloro-2,4-disulfamoylphenyl)carbamothioyl)-3,4-dimethoxybenzamide]
cytotoxicity at 100 µM [1]: 3 ± 0.04% | viability at 100 µM [1]: 97 ± 0.3% | IC50 (hCA IX): 1710 ± 650 nM | IC50 (hCA II): 11500 ± 160 nM | inhibition of hCA-II in words (hCA II): moderate inhibition

Compound: COc1ccc(C(=O)NC(=S)Nc2c(Cl)cc([N+](=O)[O-])cc2Br)cc1OC [Compound 19, N-((2-Bromo-6-chloro-4-nitrophenyl)carbamothioyl)-3,4-dimethoxybenzamide]
cytotoxicity at 100 µM [1]: 50 ± 0.08% | viability at 100 µM [1]: 49 ± 0.6% | IC50 (hCA IX): 1010 ± 50 nM | IC50 (hCA II): 725 nM and 720 nM

Compound: Cc1cc(C)cc(C(=O)NC(=S)Nc2ccccc2O)c1 [Compound 24, N-((2-Hydroxyphenyl)carbamothioyl)-3,5-dimethylbenzamide]
cytotoxicity at 100 µM [1]: 18 ± 0.03% | viability at 100 µM [1]: 81 ± 0.1% | IC50 (hCA XII): 9900 ± 660 nM | IC50 (hCA IX): 1250 ± 20 nM | IC50 (hCA II): 1240 ± 960 nM

Compound: Cc1ccc(C(=O)NC(=S)Nc2ccc(C(=O)O)cc2)c(C)c1 [Compound 25, 4-(3-(2,4-Dimethylbenzoyl)thioureido) Benzoic Acid]
cytotoxicity at 100 µM [1]: 2 ± 0.02% | viability at 100 µM [1]: > 90% | IC50 (hCA IX): 9760 ± 1030 nM | IC50 (hCA II): 380 ± 10 nM

Compound: Cc1cc(C)cc(C(=O)NC(=S)Nc2cc(Cl)c(O)c(Cl)c2)c1 [Compound 26, N-((3,5-Dichloro-4-hydroxyphenyl)carbamothioyl)-3,5-dimethylbenzamide]
cytotoxicity at 100 µM [1]: 2 ± 0.06% | viability at 100 µM [1]: > 90% | IC50 (hCA XII): 2020 ± 280 nM | IC50 (hCA IX): 1280 ± 90 nM | IC50 (hCA II): 4450 ± 110 nM | inhibition of hCA-II in words (hCA II): moderate inhibition

Compound: N-((2-Hydroxyphenyl) carbamothioyl)-3,4-dimethoxybenzamide [Compound 20]
% cytotoxicity ± SD (BHK-21 cells) (BHK-21 normal cells): 54.6 ± 0.02% | % cell viability ± SD (BHK-21 cells) (BHK-21 normal cells): 45 ± 0.09% | % cytotoxicity ± SD (HEK-293 T cells) (HEK-293 T normal cells): 13 ± 0.03% | % cell viability ± SD (HEK-293 T cells) (HEK-293 T normal cells): 86 ± 0.07% | inhibition of hCA-II in words (hCA II): did not show any inhibition

The next lines start with results.

IC50 (hCA XII): 2990 ± 320 nM | IC50 (hCA IX): 170 ± 50 nM | IC50 (hCA II): 1190 nM and 1180 nM
Compound: Cc1cc(C)cc(C(=O)Nc2cc(Cl)c(S(N)(=O)=O)cc2S(N)(=O)=O)c1 [Compound 11, N-(5-Chloro-2,4-disulfamoylphenyl)-3,5-dimethylbenzamide]
cytotoxicity at 100 µM [1]: 27 ± 0.06% | viability at 100 µM [1]: 72 ± 0.6%

IC50 (hCA XII): 580 ± 60 nM | inhibition of hCA-II in words (hCA II): did not show any inhibition
Compound: COc1ccc(C(=O)Nc2cc(Cl)c(O)c(Cl)c2)cc1OC [Compound 12, N-(3,5-Dichloro-4-hydroxyphenyl)-3,4-dimethoxybenzamide]
cytotoxicity at 100 µM [1]: 26.6 ± 0.06% | viability at 100 µM [1]: 73 ± 0.1%

IC50 (hCA XII): 1050 ± 110 nM | IC50 (hCA II): 1930 ± 150 nM
Compound: Cc1cc(C)cc(C(=O)Nc2cc(Br)cc(C(F)(F)F)c2)c1 [Compound 15, N-(3-Bromo-5-(trifluoromethyl)phenyl)-3,5-dimethylbenzamide]
cytotoxicity at 100 µM [1]: 18 ± 0.6% | viability at 100 µM [1]: 82 ± 0.6%

IC50 (hCA XII): 1680 ± 150 nM | IC50 (hCA IX): 210 ± 90 nM | IC50 (hCA II): 4170 ± 290 nM | inhibition of hCA-II in words (hCA II): moderate inhibition
Compound: COc1ccc(C(=O)NC(=S)Nc2ccc(C(=O)O)cc2)cc1OC [Compound 18, 4-(3-(3,4-Dimethoxybenzoyl)thioureido) Benzoic Acid]
cytotoxicity at 100 µM [1]: 24 ± 0.07% | viability at 100 µM [1]: 75%

IC50 (hCA XII): 4290 ± 240 nM | IC50 (hCA IX): 4930 ± 1830 nM | IC50 (hCA II): 260 ± 30 nM
Compound: COc1ccc(C(=O)NC(=S)Nc2cc([N+](=O)[O-])ccc2Cl)cc1OC [Compound 22, N-((2-Chloro-5-nitrophenyl)carbamothioyl)-3,4-dimethoxybenzamide]
cytotoxicity at 100 µM [1]: 9 ± 0.05% | viability at 100 µM [1]: > 90%

inhibition of hCA-II in words (hCA II): did not show any inhibition
Compound: N-((3-Bromo-5-(trifluoromethyl) phenyl) carbamothioyl)-3,4-dimethoxybenzamide [Compound 23]
% cytotoxicity ± SD (BHK-21 cells) (BHK-21 normal cells): 65.0 ± 0.06% | % cytotoxicity ± SD (HEK-293 T cells) (HEK-293 T normal cells): 26 ± 0.06%

From article PMC9773353 (ACS Omega, 2022)
